Tests used:
PS1-Sh ble polypeptide = biological target: T1, PS1-Sh ble polypeptide (UniProt P17493+P49768); test: Level of PS1-Sh ble polypeptide after inhibitor treatment; format: cell-based; conditions: FIG. 13 legend
T1 construct: Sh ble protein (Ble, bleomycin/zeocin resistance protein of Streptoalloteichus hindustanus, 124 aa); expressed in transfected cells

PS2 = PS2 (Homo sapiens, UniProt P49810); conditions: previously reported (Shearman et al., 2000); cited from earlier work
[1] = test system: Stable N2a cells expressing PS1 chimeric proteins; test: Zeocin toxicity / cell viability assay (WST-1) in stable N2a cells expressing PS1 chimera; format: cell-based, mouse
Method: (§1) Cultured stable N2a cells expressing chimeric PS1 polypeptides were tested for cell viability in the presence of increasing concentrations of zeocin and in the presence and absence of known presenilin inhibitors in multi-well formats (FIG. 11). […] In these assays, cell viability can be assayed by commercially available cell viability ELISA kits.
(§2) Stable N2a cells expressing PS1 chimeric proteins or the parental N2a cell line were plated at a density of 6.25×10^3 cells/well into 96-well tissue culture dishes in a volume of 90 µl/well. Serial dilutions of Zeocin were added (2 mg/ml to 0.0625 mg/ml final concentration) in a volume of 10 µl/well. In some experiments the γ-secretase inhibitor, […] (purchased from Bachem) was added at a final concentration of 1 μM to one set of wells. The cells were incubated from 2 to 3 days at 37° C. Then 10 μl of Cell Proliferation Reagent WST-1 (Roche Biochemical) was added to each well. The plate was shaken for 30 sec. then placed back in the 37° C. incubator. The plate was read at 450 nm after 30 min., 1 h, 2 h and 3h in a Benchmark Plus Absorbance Plate Reader (BioRad).

PS1 = PS1 (Homo sapiens, UniProt P49768); conditions: previously reported (Shearman et al., 2000); cited from earlier work
parental PS1ΔBle cells = parental PS1ΔBle cells expressing very low levels of PS1ΔBle
Method: For the screen, a cell line that expresses very low levels of the PS1ΔBle protein is chosen so that the chimera is largely present as cleaved PS1 NTF and PS1ΔBleCTF. Thus, transgene-derived expression of a putative protein that facilitates increased accumulation of PS1ΔBle confers increased bleomycin (Zeocin) resistance to the target cell. […] After allowing infection/transgene expression for 2-3 days, the infected population of cells are subject to antibiotic selection in 1-2 mg/ml zeocin (5-10 times greater than the concentration normally used for selecting stable clones). At this higher concentration, only cells that accumulate several fold higher levels of PS1ΔBle relative to parental PS1ΔBle cells (that are resistant to 0.2 mg/ml), form colonies. […] If overexpression of a particular cDNA caused increased accumulation of PS1ΔBle, and therefore, an increased resistance to zeocin, in a clone, the cDNA rescued from the clone will confer increased resistance to the parental PS1ΔBle cells during the rescreening.

parental N2a cell line = conditions: parental cells; lowest zeocin concentration tested (0.2 mg/ml); FIG. 12
Method: as §1, §2

Row | Compound | levels of the PS1-Sh ble polypeptide (PS1-Sh ble polypeptide) | binding to PS2 (PS2) | zeocin concentrations at which inhibitor-treated cells are viable ([1]; cells expressing PS1 chimera treated with inhibitor (1 μM), FIG. 13) [mg/mL] | resistance to zeocin conferred by the PS1 chimera ([1]; inhibitor at final concentration of 1 μM plus zeocin, FIG. 13) | binding to PS1 (PS1) | zeocin concentration to which cells are resistant (parental PS1ΔBle cells) [mg/mL] | cell viability in presence of zeocin (parental N2a cell line) | zeocin concentrations at which cells are viable ([1]; cells expressing PS1 chimera, 2 to 3 days at 37° C., WST-1 read at 450 nm, FIG. 12) [mg/mL]
1 | CC(C)C[C@H](NC(=O)[C@H](Cc1ccccc1)C[C@@H](O)[C@H](Cc1ccccc1)NC(=O)OC(C)(C)C)C(=O)N[C@@H](Cc1ccccc1)C(N)=O [L-685,458] | reduces the levels | bind | 0 to 2 | reduced the resistance to zeocin | bind | – | – | –
2 | Cc1c(N)nc([C@H](CC(N)=O)NC[C@H](N)C(N)=O)nc1C(=O)N[C@H](C(=O)N[C@H](C)[C@@H](O)[C@H](C)C(=O)N[C@H](C(=O)NCCC1=N[C@@H](c2nc(C(=O)NCCCCN=C(N)N)cs2)CS1)[C@@H](C)O)[C@@H](O[C@@H]1O[C@@H](CO)[C@@H](O)[C@H](O)[C@@H]1O[C@H]1O[C@H](CO)[C@@H](O)[C@H](OC(N)=O)[C@@H]1O)c1cnc[nH]1 [zeocin] | – | – | – | – | – | 0.2 | significantly less viable | 0 to 4
